# Results: PubChem BioAssay (NCI)
#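 Results reflect a 48-hour exposure of cells in 96-well plates to compound at five concentrations. TGI: total growth inhibition.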
# What was measured:
# Assay in all cases: inhibition of tumour cell growth, NCI panel, 48 h
# HL-60(TB) leukemia = system: HL-60(TB) leukemia
# SK-MEL-2 melanoma = system: SK-MEL-2 melanoma
# K-562 leukemia = system: K-562 leukemia
# U251 CNS = system: U251 CNS
# SR leukemia = system: SR leukemia
# OVCAR-4 ovarian = system: OVCAR-4 ovarian
# BT-549 breast = system: BT-549 breast
# HCT-15 colon = system: HCT-15 colon
# UO-31 renal = system: UO-31 renal
# OVCAR-3 ovarian = system: OVCAR-3 ovarian
# M14 melanoma = system: M14 melanoma
# SK-MEL-28 melanoma = system: SK-MEL-28 melanoma
# UACC-62 melanoma = system: UACC-62 melanoma
# SK-MEL-5 melanoma = system: SK-MEL-5 melanoma
# IGROV1 ovarian = system: IGROV1 ovarian
# MDA-MB-435 = system: MDA-MB-435
# HCT-116 colon = system: HCT-116 colon
# SK-OV-3 ovarian = system: SK-OV-3 ovarian
# NCI/ADR-RES ovarian = system: NCI/ADR-RES ovarian
# SN12C renal = system: SN12C renal
# KM12 colon = system: KM12 colon
# HT29 colon = system: HT29 colon
# OVCAR-8 ovarian = system: OVCAR-8 ovarian
# SNB-75 CNS = system: SNB-75 CNS
# NCI-H226 lung = system: NCI-H226 lung
# A498 renal = system: A498 renal
# MDA-MB-231 breast = system: MDA-MB-231 breast
# LOX IMVI melanoma = system: LOX IMVI melanoma
# OVCAR-5 ovarian = system: OVCAR-5 ovarian
# A549 NSCLC = system: A549 NSCLC
# HOP-92 NSCLC = system: HOP-92 NSCLC
# SF-295 CNS = system: SF-295 CNS
# MOLT-4 leukemia = system: MOLT-4 leukemia
# T-47D breast = system: T-47D breast
# HCC-2998 colon = system: HCC-2998 colon
# SF-268 CNS = system: SF-268 CNS
# TK-10 renal = system: TK-10 renal
# EKVX NSCLC = system: EKVX NSCLC
# SW-620 colon = system: SW-620 colon
# SNB-19 CNS = system: SNB-19 CNS
# ACHN renal = system: ACHN renal
# DU-145 prostate = system: DU-145 prostate
# HS 578T breast = system: HS 578T breast
# SF-539 CNS = system: SF-539 CNS
# 786-0 renal = system: 786-0 renal
# NCI-H522 lung = system: NCI-H522 lung
# MCF7 breast = system: MCF7 breast
# COLO 205 colon = system: COLO 205 colon
# UACC-257 melanoma = system: UACC-257 melanoma
# NCI-H460 lung = system: NCI-H460 lung
# MDA-N = system: MDA-N
# HOP-62 NSCLC = system: HOP-62 NSCLC
# PC-3 prostate = system: PC-3 prostate
# RPMI-8226 leukemia = system: RPMI-8226 leukemia
# CAKI-1 renal = system: CAKI-1 renal
# RXF 393 renal = system: RXF 393 renal
# NCI-H23 lung = system: NCI-H23 lung
# MALME-3M melanoma = system: MALME-3M melanoma
# CCRF-CEM leukemia = system: CCRF-CEM leukemia
compound,measurement,setting,value
NC(=O)NN=C1C[C@H]2CCCC[C@H]2C1,TGI,HL-60(TB) leukemia,> 100 µM
same,TGI,SK-MEL-2 melanoma,> 100 µM
same,TGI,K-562 leukemia,> 100 µM
same,TGI,U251 CNS,> 100 µM
same,TGI,SR leukemia,> 100 µM
same,TGI,OVCAR-4 ovarian,> 100 µM
same,TGI,BT-549 breast,> 100 µM
same,TGI,HCT-15 colon,> 100 µM
same,TGI,UO-31 renal,> 100 µM
same,TGI,OVCAR-3 ovarian,> 100 µM
same,TGI,M14 melanoma,> 100 µM
same,TGI,SK-MEL-28 melanoma,> 100 µM
same,TGI,UACC-62 melanoma,> 100 µM
same,TGI,SK-MEL-5 melanoma,> 100 µM
same,TGI,IGROV1 ovarian,> 100 µM
same,TGI,MDA-MB-435,> 100 µM
same,TGI,HCT-116 colon,> 100 µM
same,TGI,SK-OV-3 ovarian,> 100 µM
same,TGI,NCI/ADR-RES ovarian,> 100 µM
same,TGI,SN12C renal,> 100 µM
same,TGI,KM12 colon,> 100 µM
same,TGI,HT29 colon,> 100 µM
same,TGI,OVCAR-8 ovarian,> 100 µM
same,TGI,SNB-75 CNS,> 100 µM
same,TGI,NCI-H226 lung,> 100 µM
same,TGI,A498 renal,> 100 µM
same,TGI,MDA-MB-231 breast,> 100 µM
same,TGI,LOX IMVI melanoma,> 100 µM
same,TGI,OVCAR-5 ovarian,> 100 µM
same,TGI,A549 NSCLC,> 100 µM
same,TGI,HOP-92 NSCLC,> 100 µM
same,TGI,SF-295 CNS,> 100 µM
same,TGI,MOLT-4 leukemia,> 100 µM
same,TGI,T-47D breast,> 100 µM
same,TGI,HCC-2998 colon,> 100 µM
same,TGI,SF-268 CNS,> 100 µM
same,TGI,TK-10 renal,> 100 µM
same,TGI,EKVX NSCLC,> 100 µM
same,TGI,SW-620 colon,> 100 µM
same,TGI,SNB-19 CNS,> 100 µM
same,TGI,ACHN renal,> 100 µM
same,TGI,DU-145 prostate,> 100 µM
same,TGI,HS 578T breast,> 100 µM
same,TGI,SF-539 CNS,> 100 µM
same,TGI,786-0 renal,> 100 µM
same,TGI,NCI-H522 lung,> 100 µM
same,TGI,MCF7 breast,> 100 µM
same,TGI,COLO 205 colon,> 100 µM
same,TGI,UACC-257 melanoma,> 100 µM
same,TGI,NCI-H460 lung,> 100 µM
same,TGI,MDA-N,> 100 µM
same,TGI,HOP-62 NSCLC,> 100 µM
same,TGI,PC-3 prostate,> 100 µM
same,TGI,RPMI-8226 leukemia,> 100 µM
same,TGI,CAKI-1 renal,> 100 µM
COC(=O)[C@@H](Nc1ccccc1)[C@@]1(C(=O)OC)SC12c1ccccc1-c1ccccc12,TGI,HL-60(TB) leukemia,> 100 µM
same,TGI,SK-MEL-2 melanoma,> 100 µM
same,TGI,K-562 leukemia,> 100 µM
same,TGI,U251 CNS,> 100 µM
same,TGI,OVCAR-4 ovarian,> 100 µM
same,TGI,BT-549 breast,> 100 µM
same,TGI,HCT-15 colon,> 100 µM
same,TGI,RXF 393 renal,> 100 µM
same,TGI,UO-31 renal,> 100 µM
same,TGI,OVCAR-3 ovarian,> 100 µM
same,TGI,M14 melanoma,> 100 µM
same,TGI,SK-MEL-28 melanoma,> 100 µM
same,TGI,UACC-62 melanoma,> 100 µM
same,TGI,SK-MEL-5 melanoma,> 100 µM
same,TGI,IGROV1 ovarian,> 100 µM
same,TGI,MDA-MB-435,> 100 µM
same,TGI,HCT-116 colon,> 100 µM
same,TGI,NCI/ADR-RES ovarian,> 100 µM
same,TGI,SN12C renal,> 100 µM
same,TGI,KM12 colon,> 100 µM
same,TGI,HT29 colon,> 100 µM
same,TGI,OVCAR-8 ovarian,> 100 µM
same,TGI,NCI-H226 lung,> 100 µM
same,TGI,A498 renal,> 100 µM
same,TGI,MDA-MB-231 breast,> 100 µM
same,TGI,LOX IMVI melanoma,> 100 µM
same,TGI,OVCAR-5 ovarian,> 100 µM
same,TGI,A549 NSCLC,> 100 µM
same,TGI,HOP-92 NSCLC,> 100 µM
same,TGI,SF-295 CNS,> 100 µM
same,TGI,MOLT-4 leukemia,> 100 µM
same,TGI,T-47D breast,> 100 µM
same,TGI,NCI-H23 lung,> 100 µM
same,TGI,HCC-2998 colon,> 100 µM
same,TGI,SF-268 CNS,> 100 µM
same,TGI,TK-10 renal,> 100 µM
same,TGI,EKVX NSCLC,> 100 µM
same,TGI,SW-620 colon,> 100 µM
same,TGI,SNB-19 CNS,> 100 µM
same,TGI,ACHN renal,> 100 µM
same,TGI,DU-145 prostate,> 100 µM
same,TGI,MALME-3M melanoma,> 100 µM
same,TGI,HS 578T breast,> 100 µM
same,TGI,SF-539 CNS,> 100 µM
same,TGI,786-0 renal,> 100 µM
same,TGI,NCI-H522 lung,62.5 µM
same,TGI,MCF7 breast,> 100 µM
same,TGI,COLO 205 colon,> 100 µM
same,TGI,UACC-257 melanoma,> 100 µM
same,TGI,MDA-N,> 100 µM
same,TGI,HOP-62 NSCLC,> 100 µM
same,TGI,PC-3 prostate,> 100 µM
same,TGI,RPMI-8226 leukemia,> 100 µM
same,TGI,CAKI-1 renal,> 100 µM
same,TGI,CCRF-CEM leukemia,> 100 µM
Nc1ncnc2oc(-c3cccs3)nc12,TGI,HL-60(TB) leukemia,> 100 µM
same,TGI,SK-MEL-2 melanoma,> 100 µM
same,TGI,K-562 leukemia,> 100 µM
same,TGI,U251 CNS,> 100 µM
same,TGI,SR leukemia,> 100 µM
same,TGI,OVCAR-4 ovarian,> 100 µM
same,TGI,BT-549 breast,> 100 µM
same,TGI,HCT-15 colon,> 100 µM
same,TGI,RXF 393 renal,> 100 µM
same,TGI,UO-31 renal,> 100 µM
same,TGI,OVCAR-3 ovarian,> 100 µM
same,TGI,M14 melanoma,> 100 µM
same,TGI,SK-MEL-28 melanoma,> 100 µM
same,TGI,UACC-62 melanoma,> 100 µM
same,TGI,SK-MEL-5 melanoma,> 100 µM
same,TGI,IGROV1 ovarian,> 100 µM
same,TGI,MDA-MB-435,> 100 µM
same,TGI,HCT-116 colon,> 100 µM
same,TGI,NCI/ADR-RES ovarian,> 100 µM
same,TGI,SN12C renal,> 100 µM
same,TGI,KM12 colon,> 100 µM
same,TGI,HT29 colon,> 100 µM
same,TGI,OVCAR-8 ovarian,> 100 µM
same,TGI,NCI-H226 lung,> 100 µM
same,TGI,A498 renal,> 100 µM
same,TGI,MDA-MB-231 breast,> 100 µM
same,TGI,LOX IMVI melanoma,> 100 µM
same,TGI,OVCAR-5 ovarian,> 100 µM
same,TGI,A549 NSCLC,> 100 µM
same,TGI,HOP-92 NSCLC,> 100 µM
same,TGI,SF-295 CNS,> 100 µM
same,TGI,T-47D breast,> 100 µM
same,TGI,NCI-H23 lung,> 100 µM
same,TGI,HCC-2998 colon,> 100 µM
same,TGI,SF-268 CNS,> 100 µM
same,TGI,TK-10 renal,> 100 µM
same,TGI,EKVX NSCLC,> 100 µM
same,TGI,SW-620 colon,> 100 µM
same,TGI,SNB-19 CNS,> 100 µM
same,TGI,ACHN renal,> 100 µM
same,TGI,DU-145 prostate,> 100 µM
same,TGI,HS 578T breast,> 100 µM
same,TGI,SF-539 CNS,> 100 µM
same,TGI,786-0 renal,> 100 µM
same,TGI,NCI-H522 lung,> 100 µM
same,TGI,MCF7 breast,> 100 µM
same,TGI,COLO 205 colon,> 100 µM
same,TGI,UACC-257 melanoma,> 100 µM
same,TGI,NCI-H460 lung,> 100 µM
same,TGI,MDA-N,> 100 µM
same,TGI,HOP-62 NSCLC,> 100 µM
same,TGI,PC-3 prostate,> 100 µM
same,TGI,RPMI-8226 leukemia,> 100 µM
same,TGI,CCRF-CEM leukemia,> 100 µM
